Structures are written as SMILES. Where two headings read alike, the source gives them in different places.

Among the data in patent US20220227762A1, “AMIDE-SUBSTITUTED IMIDAZO COMPOUNDS AS SELECTIVE INHIBITORS OF INDOLEAMINE 2,3-DIOXYGENASES” (BEIGENE, LTD., priority 2019, published 2022) are EC50 and fraction unbound values, retold here.

In data set [1] the target is T1, IDO1 (Homo sapiens, UniProt P14902).
T1 construct: endogenous in cells; host or cells: HeLa cells (American Type Culture Collection), induced with human recombinant IFN-γ
Briefly: HeLa Cell-Based IDO1 Kyn (Kynurenine) Production Assay. As for the experimental part: HeLa Cell-Based IDO1 Kyn (Kynurenine) Production Assay:
The inhibitory activity of IDO1 inhibitors is determined by using a colorimetric reaction to measure Kyn generated from L-Trp (L-Tryptophon) oxidation by cellular IDO1 in HeLa cells after induction of IDO1 expression by IFN-γ. Hela cells were obtained from the American Type Culture Collection and recovered in 10% FBS-containing phenol red-free DMEM medium. Cells were plated onto a 96-well plate (100 μl/well) at 8000 cells per well and kept at 37° C. in a humidified incubator supplied with 5% CO2. 4 hours later, Human recombinant IFN-γ (8901SC, CST) was added to cells (final concentration 100 ng/mL) to stimulate endogenous IDO1. Compounds at different concentrations diluted in dimethylsulfoxide (DMSO) were added simultaneously with IFN-γ and 0.4 mM L-Trp. Cells were kept at 37° C. in a humidified incubator supplied with 5% CO2. After 48 hours of incubation, 100 μl supernatant from each well was removed to a new plate. The protein in the medium was precipitated with the addition of 8 μl 6N trichloroacetic acid. The plate was incubated at 60° C. for 30 minutes and then centrifugation at 2500 rpm for 10 minutes to remove sediments. 80 μl supernatants were carefully removed to a new clean plate and added with an equal volume of 2% 4-(Dimethylamino)benzaldehyde (D2004, Sigma) dissolved in glacial acetic acid. The absorbance at 480 nm wavelength derived from Kyn was measured using a PHERAstar FS plate reader (BMG LABTECH). The IC50 for each compound was derived from fitting the dose-response data to the four-parameter logistic model by using XLfit software (IDBS).

Data set [2] has as its system plasma protein. Briefly: Plasma Protein Binding Assay (equilibrium dialysis). As to conditions: 50% plasma, Human plasma, 37° C., read-out: Plasma Protein Binding assay (fu %) Human. In kind it is in vitro ADME. As for the experimental part:
Plasma Protein Binding Assay:
To evaluate the plasma protein binding extent, the bound (fb) and unbound (fu) fractions of test compound will be determined in vitro by equilibrium dialysis approach, using a 96-well dialysis device (HT Dialysis, Gales Ferry, Conn., USA). The equilibrium dialysis will be conducted in duplicate. A hundred and fifty μL of 50% plasma spiked with the test compound (final concentration of 5 μM) will be added into the donor side and 150 μL of Phosphate Buffer (PB) (0.002% Tween-80) into the corresponding receiving side. The device will be then sealed with adhesive film and shook at 80 rpm in the water bath at 37° C. for 6 h. At the end of incubation, 10 μL plasma sample will be transferred from the donor side into a 1.5 mL microcentrifuge tube, added with 90 μL PB (0.002% Tween-80), vortexed well and proteins precipitated by acetonitrile containing internal standard (IS). Ninety μL of PB (0.002% Tween-80) sample will be transferred from the receiver side into a 1.5 mL microcentrifuge tube, added with 10 μL 50% blank plasma, vortexed well and proteins precipitated by acetonitrile containing IS.
For recovery check, […] of the donor side loading samples will be aliquoted into a 1.5 mL microcentrifuge tube (in duplicate), added with 90 μL PB (0.002% Tween-80), vortexed well and proteins precipitated by acetonitrile containing IS.
For plasma stability check, 10 μL of the donor side loading samples will be aliquoted into a 1.5 mL microcentrifuge tube (in duplicate), incubated in the water bath at 37° C. for 6 h, added with 90 μL PB (0.002% Tween-80) solution at the end of the incubation, vortexed well and proteins precipitated by acetonitrile containing IS.
Appropriate LC-MS/MS methods will be developed for the analysis of the test or control compounds in the incubates.
The unbound fraction (fu) of the test compound and positive control compounds in 50% plasma will be calculated using the following equations.
Where CR is the area ratio of the test compounds to the IS in the receiving side, CD is the area ratio of the test compound to the IS in the corresponding donor side and D is the dilution factor of plasma.
For orientation: In equilibrium dialysis free small molecules cross a membrane that holds back macromolecules.

Where [3] appears, read: HeLa cells, IDO1 induced by IFN-γ, 0.4 mM L-Trp, 48 hours incubation, Kyn absorbance at 480 nm, read-out: Cell-Based EC50 (nM) Hela IDO1.

T1 sequence (P14902 whole entry): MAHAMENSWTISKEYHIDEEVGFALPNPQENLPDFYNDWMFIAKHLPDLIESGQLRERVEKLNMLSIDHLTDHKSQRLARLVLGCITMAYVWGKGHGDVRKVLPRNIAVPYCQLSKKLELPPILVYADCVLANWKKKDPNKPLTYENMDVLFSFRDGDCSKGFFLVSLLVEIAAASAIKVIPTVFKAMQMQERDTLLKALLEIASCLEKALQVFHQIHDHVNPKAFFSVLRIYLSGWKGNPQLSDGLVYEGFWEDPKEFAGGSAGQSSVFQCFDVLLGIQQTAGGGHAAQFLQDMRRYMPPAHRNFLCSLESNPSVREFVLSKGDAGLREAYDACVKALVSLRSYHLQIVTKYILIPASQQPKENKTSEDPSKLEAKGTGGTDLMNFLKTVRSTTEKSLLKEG

The EC50 is the concentration giving half of the maximal effect. In the case of `C[C@@H](c1nc2cc(C(=O)NC3CCC3)ccc2[nH]1)[C@H]1CC[C@@H](c2ccnc3ccc(F)cc32)CC1` [Example 4, N-cyclobutyl-2-((R)-1-((1s,4S)-4-(6-fluoroquinolin-4-yl)cyclohexyl)ethyl)-1H-benzo[d]imidazole-6-carboxamide], the half-maximal effective concentration (EC50) in data set [1] (setting [3]) is 26.9 nM. Further, the fraction unbound at 6 h, 5 μM in data set [2] was determined as 0.002.
In the case of `COC1CCC(NC(=O)c2ccc3nc([C@H](C)[C@H]4CC[C@H](c5ccnc6ccc(F)cc65)CC4)[nH]c3c2)CC1` (stereo partly drawn) [Example 19, 2-((R)-1-((1r,4R)-4-(6-fluoroquinolin-4-yl)cyclohexyl)ethyl)-N-(4-methoxycyclohexyl)-1H-benzo[d]imidazole-6-carboxamide], the EC50 in data set [1] (setting [3]) turned out to be 193 nM.
Same read-out and setting: then `CC(c1nc2cc(C(=O)NC3CC3)c(F)cc2[nH]1)[C@H]1CC[C@@H](c2ccnc3ccc(F)cc32)CC1` (stereo partly drawn) [Example 20, N-cyclopropyl-6-fluoro-2-(1-((1s,4S)-4-(6-fluoroquinolin-4-yl)cyclohexyl)ethyl)-1H-benzo[d]imidazole-5-carboxamide], with 6.9 nM; and `CC(c1nc2c(F)c(F)c(C(=O)NC3CC3)cc2[nH]1)[C@H]1CC[C@@H](c2ccnc3ccc(F)cc32)CC1` (stereo partly shown) [Example 21, N-cyclopropyl-4,5-difluoro-2-(1-((1s,4s)-4-(6-fluoroquinolin-4-yl)cyclohexyl)ethyl)-1H-benzo[d]imidazole-6-carboxamide], with 8.9 nM.
Turning to `C[C@H](c1nc2cnc(C(=O)NC3CC3)cc2[nH]1)[C@H]1CC[C@@H](c2ccnc3ccc(F)cc32)CC1` [Example 22a, N-cyclopropyl-2-((S)-1-((1s,4R)-4-(6-fluoroquinolin-4-yl)cyclohexyl)ethyl)-1H-imidazo[4,5-c]pyridine-6-carboxamide], the EC50 in data set [1] (setting [3]) was determined as 267 nM. Moreover, in data set [2], the fraction unbound at 6 h, 5 μM was determined as 0.0056.
As to `C[C@@H](c1nc2cc(C(=O)NC3CC3)ncc2[nH]1)[C@H]1CC[C@@H](c2ccnc3ccc(F)cc32)CC1` [Example 22b, N-cyclopropyl-2-((R)-1-((1s,4s)-4-(6-fluoroquinolin-4-yl)cyclohexyl)ethyl)-3H-imidazo[4,5-c]pyridine-6-carboxamide], the half-maximal effective concentration (EC50) in data set [1] (setting [3]) turned out to be 0.96 nM. For the same compound, the fraction unbound at 6 h, 5 μM in data set [2] worked out at 0.0047.
The corresponding values for `CNC(=O)c1cc2[nH]c([C@@H](C)[C@H]3CC[C@@H](c4ccnc5ccc(F)cc54)CC3)nc2cn1` [Example 23a, 2-((S)-1-((1s,4R)-4-(6-fluoroquinolin-4-yl)cyclohexyl)ethyl)-N-methyl-1H-imidazo[4,5-c]pyridine-6-carboxamide] are 223 nM and 0.0072.
The corresponding values for `CNC(=O)c1cc2[nH]c([C@H](C)[C@H]3CC[C@@H](c4ccnc5ccc(F)cc54)CC3)nc2cn1` [Example 23b, 2-((R)-1-((1s,4S)-4-(6-fluoroquinolin-4-yl)cyclohexyl)ethyl)-N-methyl-1H-imidazo[4,5-c]pyridine-6-carboxamide] are 3.83 nM and 0.0053.
For `C[C@@H](c1nc2cc(C(=O)NC3CC3)cnc2[nH]1)[C@H]1CC[C@@H](c2ccnc3ccc(F)cc32)CC1` [Example 24, N-cyclopropyl-2-((R)-1-((1s,4S)-4-(6-fluoroquinolin-4-yl)cyclohexyl)ethyl)-3H-imidazo[4,5-b]pyridine-6-carboxamide], the EC50 in data set [1] (setting [3]) is 24.9 nM.
The same measure, in the same setting: in the case of `CC(c1nc2cc3c(=O)[nH]cnc3cc2[nH]1)[C@H]1CC[C@@H](c2ccnc3ccc(F)cc32)CC1` (stereo partly shown) [Example 25, 2-(1-((1s,4s)-4-(6-fluoroquinolin-4-yl)cyclohexyl)ethyl)-3,7-dihydro-8H-imidazo[4,5-g]quinazolin-8-one] it was 82.4 nM.
The same measure, in the same setting: then `CCNC(=O)c1cc2nc([C@H](C)[C@H]3CC[C@@H](c4ccnc5ccc(F)cc54)CC3)[nH]c2cn1` [Example 26, N-ethyl-2-((R)-1-((1s,4S)-4-(6-fluoroquinolin-4-yl)cyclohexyl)ethyl)-3H-imidazo[4,5-c]pyridine-6-carboxamide], with 0.77 nM.
The compound `C[C@@H](c1nc2cc(F)c(F)cc2[nH]1)[C@H]1CC[C@@H](c2ccnc3ccc(F)cc32)CC1` [Example 27b, 4-((1S,4s)-4-((R)-1-(5,6-difluoro-1H-benzo[d]imidazol-2-yl)ethyl)cyclohexyl)-6-fluoroquinoline, reference compound] had an EC50 in data set [1] of 0.42 nM. Also, the fraction unbound at 6 h, 5 μM in data set [2] was 0.00034.
Take `COC(=O)c1ccc2[nH]c([C@H](C)[C@H]3CC[C@@H](c4ccnc5ccc(F)cc54)CC3)nc2c1` [Example 28b, methyl 2-((R)-1-((1s,4S)-4-(6-fluoroquinolin-4-yl)cyclohexyl)ethyl)-1H-benzo[d]imidazole-5-carboxylate, reference compound]: the 50% effective concentration (EC50) in data set [1] (setting [3]) is 0.55 nM. Besides, the fraction unbound at 6 h, 5 μM in data set [2] is 0.00067.
The corresponding values for `C[C@@H](c1nc2c(F)c(F)c(F)cc2[nH]1)[C@H]1CC[C@@H](c2ccnc3ccc(F)cc32)CC1` [Example 29, 6-fluoro-4-((1S,4s)-4-((R)-1-(4,5,6-trifluoro-1H-benzo[d]imidazol-2-yl)ethyl)cyclohexyl)quinoline, reference compound] are 0.85 nM and 0.0002.
